# Where two headings read alike, the source gives them in different places.
# Key:
# HIV-1 = details: Assay #8
# Experimental: Reverse transcriptase (RT) activity was measured in cell-free supernatants. Tritiated thymidine triphosphate (NEN) (TTP) was resuspended in distilled H2O at 5 Cl/mL. Poly rA and oligo dT were prepared as a stock solution which was kept at −20° C. The RT reaction buffer was prepared fresh on a daily basis and consists of 125 μL 1.0 M EGTA, 125 μL d H2O, 110 μL 10% SDS, 50 μL 1.0 M Tris (pH 7.4), 50 μL 1.0 M DTT, and 40μ1.0 M MgCl2. These three solutions were mixed together in a ratio of 2 parts TTP, 1 part poly rA:oligo dT, and 1 part reaction buffer. Ten microliters of this reaction mixture was placed in a round bottom microtiter plate and 15 μL of virus containing supernatant was added and mixed. The plate was incubated at 37° C. in a water bath with a solid support to prevent submersion of the plate and incubated for 60 minutes. Following reaction, the reaction volume was spotted onto pieces of DE81 paper, washed 5 times for 5 minutes each in a 5% sodium phosphate buffer, 2 times for 1 minute each in distilled water, 2 times for 1 minute each in 70% ethanol, and then dried. Opti-Fluor O was added to each sample and incorporated radioactivity was quantitated utilizing a Wallace 1450 Microbetaplus liquid scintillation counter.
# Control groups were not treated with the enzyme.
# ROJO (low passage HIV-1) = assay: Study 4 sensitization, Turpin and standard macrophages: RT activity after Rojo challenge; assay type: cell-based; details: Rojo Sensitized
# Experimental: (§1) Percent virus control (% VC) in the following tables is the mean RT activity (cpm) as a percentage of a virus control. Percent cell control (% CC) is the mean XTT absorbance as a percentage of a cell control.
# (§2) The macrophage plates were then washed with HBSS multiple times. Fresh mixed pha blast PBMCs (5×10e4/well) were placed on the macrophage cells, allowed to incubate for 72 hours and then harvested and reset in a fresh 96 well plate. The PBMCs were then challenged overnight with the respective virus (IIIB or Rojo) at a standard MOI for that virus. The PBMCs were 5× in plate spin washed with DPBS, incubated 24 hours, at which time 5×10e4 fresh pha blast PBMCs/well were added. The culture was incubated an additional 6 days and then assayed for RT activity.
# (§3) Where viability corrections were conducted, they were performed by dividing the RT CPM value by the toxicity absorbance in order to compensate for well to well variations noted in the cell titer toxicity noted.
# PBMCs = assay: Study 4 sensitization: cell viability; assay type: cell-based, human
# Experimental: as §1, §2, §3
# Rojo virus = assay: Study 3 hyaluronidase sensitization assay: RT activity after Rojo challenge of naive PBMCs; assay type: cell-based, HIV-1
# Experimental: as §1
# Reverse transcriptase (RT) activity was measured in cell-free supernatants. Tritiated thymidine triphosphate (NEN) (TTP) was resuspended in distilled H2O at […]. Poly rA and oligo dT were prepared as a stock solution which was kept at −20° C. The RT reaction buffer was prepared fresh on a daily basis and consists of 125 μL 1.0 M EGTA, 125 μL d H2O, 110 μL 10% SDS, 50 μL 1.0 M Tris (pH 7.4), 50 μL 1.0 M DTT, and 40μ1.0 M MgCl2. These three solutions were mixed together in a ratio of 2 parts TTP, 1 part poly rA:oligo dT, and 1 part reaction buffer. Ten microliters of this reaction mixture was placed in a round bottom microtiter plate and 15 μL of virus containing supernatant was added and mixed. The plate was incubated at 37° C. in a water bath with a solid support to prevent submersion of the plate and incubated for 60 minutes. Following reaction, the reaction volume was spotted onto pieces of DE81 paper, washed 5 times for 5 minutes each in a 5% sodium phosphate buffer, 2 times for 1 minute each in distilled water, 2 times for 1 minute each in 70% ethanol, and then dried. Opti-Fluor O was added to each sample and incorporated radioactivity was quantitated utilizing a Wallace 1450 Microbetaplus liquid scintillation counter.
# Assay Summary. […] The the monolayers were 3× washed with PBS, with Human PBMCs (5×10e4/well) returned to the monolayer. The PBMCs were either mixed donor, PHA blast, with IL2 supplemented medium, or were single donor non-PHA blast/no IL2 supplemented. After 72 hours, the PBMCs were removed, reset in a 96 well plate and then challenged with a standard MOI of the Rojo virus. The plates were incubated for an additional 6 days and then assayed for RT activity. The studies were produced in triplicate.
substance,measurement,setting,value
Hyaluronidase,% Control,HIV-1; 5 mg/mL,171.3%
same,Mean RT,HIV-1; 5 mg/mL,30167.3 cpm
same,% Control,HIV-1; 10 mg/mL,63.8%
same,Mean RT,HIV-1; 10 mg/mL,11241 cpm
same,% Control,HIV-1; 20 mg/mL,51.2%
same,Mean RT,HIV-1; 20 mg/mL,9014.3 cpm
same,"% Control, Sum","HIV-1; Sum over 20, 10, 5 mg/mL",286.3%
same,"Mean RT, Sum","HIV-1; Sum over 20, 10, 5 mg/mL",50422.6 cpm
same,RT activity % VC,"ROJO (low passage HIV-1); 0.390625 μg/mL, Standard",50.4%
same,RT activity % VC,"ROJO (low passage HIV-1); 0.390625 μg/mL, Turpin",69.6%
same,RT activity % VC,"ROJO (low passage HIV-1); 0.78125 μg/mL, Standard",59.9%
same,RT activity % VC,"ROJO (low passage HIV-1); 0.78125 μg/mL, Turpin",48.6%
same,RT activity % VC,"ROJO (low passage HIV-1); 1.5625 μg/mL, Turpin",61.1%
same,RT activity % VC,"ROJO (low passage HIV-1); 3.125 μg/mL, Standard",55.8%
same,RT activity % VC,"ROJO (low passage HIV-1); 3.125 μg/mL, Turpin",45.6%
same,RT activity % VC,"ROJO (low passage HIV-1); 6.25 μg/mL, Standard",57.7%
same,RT activity % VC,"ROJO (low passage HIV-1); 6.25 μg/mL, Turpin",39.4%
same,RT activity % VC,"ROJO (low passage HIV-1); 25 μg/mL, Standard",21.0%
same,RT activity % VC,"ROJO (low passage HIV-1); 25 μg/mL, Turpin",15.5%
same,RT activity % VC,"ROJO (low passage HIV-1); viability corrected, 0.097656 μg/mL, Standard",66.0%
same,RT activity % VC,"ROJO (low passage HIV-1); viability corrected, 0.097656 μg/mL, Turpin",94.1%
same,RT activity % VC,"ROJO (low passage HIV-1); viability corrected, 0.390625 μg/mL, Standard",52.2%
same,RT activity % VC,"ROJO (low passage HIV-1); viability corrected, 0.78125 μg/mL, Standard",55.1%
same,RT activity % VC,"ROJO (low passage HIV-1); viability corrected, 0.78125 μg/mL, Turpin",56.9%
same,RT activity % VC,"ROJO (low passage HIV-1); viability corrected, 1.5625 μg/mL, Standard",57.0%
same,RT activity % VC,"ROJO (low passage HIV-1); viability corrected, 1.5625 μg/mL, Turpin",69.1%
same,RT activity % VC,"ROJO (low passage HIV-1); viability corrected, 3.125 μg/mL, Standard",53.4%
same,RT activity % VC,"ROJO (low passage HIV-1); viability corrected, 3.125 μg/mL, Turpin",55.5%
same,RT activity % VC,"ROJO (low passage HIV-1); viability corrected, 6.25 μg/mL, Standard",56.6%
same,RT activity % VC,"ROJO (low passage HIV-1); viability corrected, 6.25 μg/mL, Turpin",48.5%
same,RT activity % VC,"ROJO (low passage HIV-1); viability corrected, 25 μg/mL, Turpin",25.6%
same,cell viability % CC,"PBMCs; 0.097656 μg/mL, GP120IIIB Sensitized, Standard",167.6%
same,cell viability % CC,"PBMCs; 0.097656 μg/mL, IIIB Sensitized, Standard",138.2%
same,cell viability % CC,"PBMCs; 0.390625 μg/mL, GP120IIIB Sensitized, Turpin",67.6%
same,cell viability % CC,"PBMCs; 1.5625 μg/mL, GP120IIIB Sensitized, Turpin",73.4%
same,cell viability % CC,"PBMCs; 6.25 μg/mL, GP120IIIB Sensitized, Turpin",73.2%
same,cell viability % CC,"PBMCs; 6.25 μg/mL, IIIB Sensitized, Standard",133.5%
same,cell viability % CC,"PBMCs; 25 μg/mL, Rojo Sensitized, Turpin",75.0%
same,cell viability % CC,"PBMCs; Table 9, 0.097656 μg/mL, GP120IIIB Sensitized, Standard",167.6%
same,cell viability % CC,"PBMCs; Table 9, 0.097656 μg/mL, IIIB Sensitized, Standard",138.2%
same,cell viability % CC,"PBMCs; Table 9, 0.390625 μg/mL, GP120IIIB Sensitized, Turpin",67.6%
same,cell viability % CC,"PBMCs; Table 9, 1.5625 μg/mL, GP120IIIB Sensitized, Turpin",73.4%
same,cell viability % CC,"PBMCs; Table 9, 6.25 μg/mL, GP120IIIB Sensitized, Turpin",73.2%
same,cell viability % CC,"PBMCs; Table 9, 6.25 μg/mL, IIIB Sensitized, Standard",133.5%
same,cell viability % CC,"PBMCs; Table 9, 25 μg/mL, Rojo Sensitized, Turpin",75.0%
same,RT activity % VC,"Rojo virus; 0.20 μg/mL, 5 μL GP120 IIIB, With PHA/IL2",78.6%
same,RT activity % VC,"Rojo virus; 0.20 μg/mL, 5 μL GP120 IIIB, Without PHA/IL2",155.9%
same,RT activity % VC,"Rojo virus; 0.20 μg/mL, 5 μL Rojo, With PHA/IL2",88.8%
same,RT activity % VC,"Rojo virus; 0.20 μg/mL, 5 μL Rojo, Without PHA/IL2",77.8%
same,RT activity % VC,"Rojo virus; 0.20 μg/mL, 10 μL Rojo, Without PHA/IL2",112.8%
same,RT activity % VC,"Rojo virus; 0.20 μg/mL, 50 μL Rojo, With PHA/IL2",79.1%
same,RT activity % VC,"Rojo virus; 0.20 μg/mL, 50 μL Rojo, Without PHA/IL2",125.8%
same,RT activity % VC,"Rojo virus; 0.39 μg/mL, 5 μL GP120 IIIB, With PHA/IL2",116.1%
same,RT activity % VC,"Rojo virus; 0.39 μg/mL, 5 μL GP120 IIIB, Without PHA/IL2",195.6%
same,RT activity % VC,"Rojo virus; 0.39 μg/mL, 5 μL Rojo, With PHA/IL2",79.7%
same,RT activity % VC,"Rojo virus; 0.39 μg/mL, 5 μL Rojo, Without PHA/IL2",102.7%
same,RT activity % VC,"Rojo virus; 0.39 μg/mL, 10 μL Rojo, With PHA/IL2",123.2%
same,RT activity % VC,"Rojo virus; 0.39 μg/mL, 10 μL Rojo, Without PHA/IL2",115.9%
same,RT activity % VC,"Rojo virus; 0.39 μg/mL, 50 μL Rojo, With PHA/IL2",87.6%
same,RT activity % VC,"Rojo virus; 0.39 μg/mL, 50 μL Rojo, Without PHA/IL2",149.4%
same,RT activity % VC,"Rojo virus; 0.78 μg/mL, 5 μL GP120 IIIB, With PHA/IL2",101.9%
same,RT activity % VC,"Rojo virus; 0.78 μg/mL, 5 μL GP120 IIIB, Without PHA/IL2",134.4%
same,RT activity % VC,"Rojo virus; 0.78 μg/mL, 5 μL Rojo, With PHA/IL2",68.2%
same,RT activity % VC,"Rojo virus; 0.78 μg/mL, 5 μL Rojo, Without PHA/IL2",7.0%
same,RT activity % VC,"Rojo virus; 0.78 μg/mL, 10 μL Rojo, With PHA/IL2",110.5%
same,RT activity % VC,"Rojo virus; 0.78 μg/mL, 10 μL Rojo, Without PHA/IL2",97.6%
same,RT activity % VC,"Rojo virus; 0.78 μg/mL, 50 μL Rojo, With PHA/IL2",102.6%
same,RT activity % VC,"Rojo virus; 1.56 μg/mL, 5 μL GP120 IIIB, With PHA/IL2",98.0%
same,RT activity % VC,"Rojo virus; 1.56 μg/mL, 5 μL GP120 IIIB, Without PHA/IL2",158.5%
same,RT activity % VC,"Rojo virus; 1.56 μg/mL, 5 μL Rojo, With PHA/IL2",59.0%
same,RT activity % VC,"Rojo virus; 1.56 μg/mL, 5 μL Rojo, Without PHA/IL2",6.4%
same,RT activity % VC,"Rojo virus; 1.56 μg/mL, 10 μL Rojo, With PHA/IL2",125.9%
same,RT activity % VC,"Rojo virus; 1.56 μg/mL, 10 μL Rojo, Without PHA/IL2",115.6%
same,RT activity % VC,"Rojo virus; 1.56 μg/mL, 50 μL Rojo, With PHA/IL2",115.7%
same,RT activity % VC,"Rojo virus; 1.56 μg/mL, 50 μL Rojo, Without PHA/IL2",146.0%
same,RT activity % VC,"Rojo virus; 3.1 μg/mL, 5 μL GP120 IIIB, With PHA/IL2",85.5%
same,RT activity % VC,"Rojo virus; 3.1 μg/mL, 5 μL GP120 IIIB, Without PHA/IL2",145.7%
same,RT activity % VC,"Rojo virus; 3.1 μg/mL, 5 μL Rojo, With PHA/IL2",56.0%
same,RT activity % VC,"Rojo virus; 3.1 μg/mL, 5 μL Rojo, Without PHA/IL2",9.7%
same,RT activity % VC,"Rojo virus; 3.1 μg/mL, 10 μL Rojo, With PHA/IL2",117.8%
same,RT activity % VC,"Rojo virus; 3.1 μg/mL, 10 μL Rojo, Without PHA/IL2",97.3%
same,RT activity % VC,"Rojo virus; 3.1 μg/mL, 50 μL Rojo, With PHA/IL2",97.3%
same,RT activity % VC,"Rojo virus; 3.1 μg/mL, 50 μL Rojo, Without PHA/IL2",86.8%
same,RT activity % VC,"Rojo virus; 6.3 μg/mL, 5 μL GP120 IIIB, With PHA/IL2",105.3%
same,RT activity % VC,"Rojo virus; 6.3 μg/mL, 5 μL GP120 IIIB, Without PHA/IL2",71.7%
same,RT activity % VC,"Rojo virus; 6.3 μg/mL, 5 μL Rojo, Without PHA/IL2",15.7%
same,RT activity % VC,"Rojo virus; 6.3 μg/mL, 10 μL Rojo, Without PHA/IL2",67.1%
same,RT activity % VC,"Rojo virus; 6.3 μg/mL, 50 μL Rojo, With PHA/IL2",61.3%
same,RT activity % VC,"Rojo virus; 6.3 μg/mL, 50 μL Rojo, Without PHA/IL2",21.3%
same,RT activity % VC,"Rojo virus; 25 μg/mL, 5 μL GP120 IIIB, With PHA/IL2",85.5%
same,RT activity % VC,"Rojo virus; 25 μg/mL, 5 μL GP120 IIIB, Without PHA/IL2",8.8%
same,RT activity % VC,"Rojo virus; 25 μg/mL, 5 μL Rojo, Without PHA/IL2",8.8%
same,RT activity % VC,"Rojo virus; 25 μg/mL, 10 μL Rojo, With PHA/IL2",97.3%
same,RT activity % VC,"Rojo virus; 25 μg/mL, 10 μL Rojo, Without PHA/IL2",2.3%
same,RT activity % VC,"Rojo virus; 25 μg/mL, 50 μL Rojo, With PHA/IL2",73.4%
same,RT activity % VC,"Rojo virus; 25 μg/mL, 50 μL Rojo, Without PHA/IL2",8.4%
